Results on six molecules are retold here after patent US20110104716A1, “NOVEL METHOD FOR SCREENING BRAIN-ACTIVE COMPOUNDS” (priority 2007, published 2011).

Entries after “also recorded” stand apart in the source; their conditions may differ. Where two headings read alike, the source gives them in different places.

This assay relates to hippocampal slices. The assay can be described thus: Hippocampal slice cultures and induction of LTP (immunohistochemistry of LTP markers). On pCREB: key: ±: no change in the activation status; ++++: a qualitative maximal activation; ++: a half-maximum activation; −: a reduction of activation. On pMAPK: key: ±: no change in the activation status; ++++: a qualitative maximal activation; ++: a half-maximum activation; −: a reduction of activation. It is filed as cell-based, Wistar rats. The settings on record: for AMPA rec. (AMPA receptors on the cell surface): 15 min treatment; for pMAPK / pCREB: relative activation vs vehicle treated sister cultures, 15 min treatment after 48 h in culture. On the procedure: Seven-day-old Wistar rats were decapitated using a guillotine. In less than 1 minute the skull was opened, the cerebral hemispheres were separated and transferred and both hippocampi were dissected and transferred into ice cold buffer containing 137 mM NaCl, 5 mM KCl, 0.85 mM Na2HPO4, 1.5 mM CaCl2, 0.66 mM KH2PO4, 0.28 mM MgSO4, 1 mM MgCl2, 2.7 mM NaHCO3, 1 mM Kynurenic acid and 0.6% D-glucose. Transversal hippocampal slices (typically 400 μm) were prepared using a vibrating blade microtome (VT1200S; Leica Microsystems (Schweiz) AG, Heerbrugg, Switzerland) in the same buffer. Hippocampal slices were individually placed on a membrane insert (Millicell Culture Plate Inserts, 0.4 μm) and cultivated at 35° C., 5% CO2, 95% humidity in a medium containing a 1:1 mixture of BME and MEM (both from Invitrogen) containing 25% heat-inactivated horse serum, 1× GlutaMAX, 1× Penicillin/Streptomycin, 0.6% glucose and 1 mM Kynurenic acid (Stoppini et al. 1991 J Neurosci Methods 37(2):173-82). […] Sarcosine (100 μM) and ALX5407 (20 nM) were used routinely as positive controls. […] After the treatments, sections were washed and fixed for immunohistochemistry. Markers of enhanced synaptic activity, normally associated with LTP, representing an in vitro (or ex vivo) model of learning and memory, were quantified (see Table 1, below). Table 1. Relative activation of synaptic markers after treatment with both extracts and some of their constituent compounds in comparison to sister cultures treated with buffer. The activation of any of these markers (or a combination thereof) is observed in classical LTP experiments. Data are compared to vehicle treated sections, which is set as 100%.

Setting [1] is: compared to vehicle treated sections set as 100%.
Setting [2] is: class symbol, vs vehicle treated sister cultures.

With `Cc1ccc(C(C)C)cc1O` [Carvacrol], the “LTP-inducing activity (biochemical markers typical for LTP)” value (“LTP-inducing activity” for short) was “lack the LTP-inducing activity” and the pMAPK entry is listed as “−”. Further, under setting [1], the “AMPA rec. (AMPA receptors on the cell surface)” value is given as 0-176%.

Take `NCC(=O)O` [Glycine]: the pCREB result was “++” and the pMAPK entry was “++”.

For the molecule `C=CC(C)(O)CCC=C(C)C` (centres unmarked) [Linalool], the “LTP-inducing activity” value is “lack the LTP-inducing activity”, the pCREB entry is “±” and the pMAPK result was “±”. Besides, under setting [2], the “AMPA rec. (AMPA receptors on the cell surface)” value is “±”.

In the case of `Cc1ccc(C(C)C)cc1` [P-Cymene], the “LTP-inducing activity” value is “induce activation of biochemical pathway leading to LTP induction”, the pCREB result was “++” and the pMAPK entry is on record as “++++”. Besides, under setting [2], the “AMPA rec. (AMPA receptors on the cell surface)” value is reported as “±”. Also, the “LTP-inducing activity” value (listed as p-cemene) is listed as “induced biochemical markers typical for LTP”.

On to `Cc1ccc(C(C)C)c(O)c1` [Thymol], for which the “LTP-inducing activity” value was “induced biochemical markers typical for LTP; also recorded: induce activation of biochemical pathway leading to LTP induction” and the pCREB result is listed as “++++”. In addition, the “AMPA rec. (AMPA receptors on the cell surface)” value under setting [1] is listed as 250-767%.

As to Caryophyllene, the “LTP-inducing activity” value is reported as “lack the LTP-inducing activity”, the pCREB result was “±” and the pMAPK entry is on record as “±”.
